Results published in patent US20240309043A1, “THERAPEUTICALLY ACTIVE STEROIDAL DERIVATIVES” (Organon R&D Finland Ltd., priority 2017, published 2024).

How the values were obtained:
Format in all cases: biochemical
[1] = test system: HSD1 enzyme that is expressed in rabbit placenta tissue; assay: Inhibition of E1 to E2 conversion in rabbit placenta tissue homogenate; conditions: inhibitor 100 nM, 30 nM estrone, 30 min
Experimental: The assay is based on an enzymatic reaction where HSD1 enzyme that is expressed in rabbit placenta tissue converts its natural substance estrone (E1) to estradiol (E2) in the presence of a co-factor β-NADPH.
Homogenization of rabbit placenta tissue: Weight a piece of the frozen tissue into a Precellys ck28 bead tube. Add buffer solution (20 mM KH2PO4 with 1 mM EDTA, pH 7,4) in 1:2 ratio (e.g. 300 mg of tissue:600 μl reaction buffer solution). Insert the bead tubes to homogenizer and homogenize 2×30 s. 6000 rpm. Centrifugated 5 min., 2600 rpm at +4° C. and collect supernatant. Aliquots of homogenate are stored in −80° C.
Assay—Inhibition of E1 to E2 conversion in rabbit placenta tissue: The reaction takes place in a buffer solution (20 mM KH2PO4 with 1 mM EDTA, pH 7,4), including appropriate amount of rabbit placenta homogenate, co-factor (1 mM β-NADPH), Substrate (30 nM estrone), labelled substrate as tracer (5 nM [^3H]-estrone). During a 30-minute incubation part of the estrone is converted to estradiol. The reaction is stopped by lowering the pH to 1 with 10% trichloro acetic acid (TCA). The substrate and conversion products are analyzed by HPLC and a Scintillation counter analyzer. Total radioactivity for estrone and estradiol were determined in each sample and percent conversion of estrone to estradiol was calculated according to the following formula:
Percent inhibition was calculated flowingly: % inhibition=100−% conversion.

[2] = molecular target: T1, recombinant human 17β-HSD2 (Homo sapiens, UniProt P37059); assay: Inhibition of recombinant human 17β-HSD2; conditions: inhibitor 1 μM; 50 nM estradiol, 1 mM NADH, 30 min RT
T1 construct: made in house; host or cells: Sd9 (Sf9) insect cells, baculovirus (Bac to Bac Expression System)
T1 sequence (P37059 1-387): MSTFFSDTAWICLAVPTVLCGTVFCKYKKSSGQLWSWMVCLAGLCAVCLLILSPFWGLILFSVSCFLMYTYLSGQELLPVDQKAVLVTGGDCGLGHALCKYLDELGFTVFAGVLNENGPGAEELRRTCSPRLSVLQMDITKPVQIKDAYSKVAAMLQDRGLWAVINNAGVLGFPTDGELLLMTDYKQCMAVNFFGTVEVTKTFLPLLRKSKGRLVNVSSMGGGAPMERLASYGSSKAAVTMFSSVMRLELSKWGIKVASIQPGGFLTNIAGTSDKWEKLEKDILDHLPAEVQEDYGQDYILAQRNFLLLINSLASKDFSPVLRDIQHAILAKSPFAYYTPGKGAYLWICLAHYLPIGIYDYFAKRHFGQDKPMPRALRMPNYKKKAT
Experimental: 17β-HSD2 production and isolation: Similarly to 17β-HSD1 the Recombinant baculovirus was generated by the “Bac to Bac Expression System” (Invitrogen). Recombinant bacmid was transfected to Sd9 insect cells using “Cellfectin Reagent” (Invitrogen). 60 h later cells were harvested and supernatant were fractionated by the following protocol: • cells were dissolved into 40 ml of A-buffer (40 mM TRIS, pH 8.0, 20% glycerol, 20 μM NAD, 0.4 mM PMSF, 150 mM NaCl, 0.5% dodecyl-β-maltoside+protease inhibitor cocktail) • cells were sonicated • lysate was incubated on ice for 15 min • lysate was centrifuged 5000 rpm 15 min, +4° C. • centrifugation of the supernatant 180 000 g 30 min, +4° C. • pellet was dissolved into 8 ml of A-buffer • not resuspended material was removed by centrifugation 5000 rpm min, +4° C. • the clear supernatant was divided into 100 μl aliquots and were stored frozen until determination of enzymatic activity.
The amount of 17β-HSD2 was analysed by immunoblotting and total protein concentration of each extract batch was determined.
Assay—Inhibition of recombinant human 17β-HSD2: Recombinant protein (4 μg/ml) was incubated in 20 mM KH2PO4 pH 8.5 with 50 nM estradiol (including 800 000 cpm/ml of ^3H-estradiol) and 1 mM NADH for 30 min at RT, in the presence of the potential inhibitor at concentrations 1 μM or 0.1 μM. Inhibitor stock solutions were prepared in DMSO. Final concentration of DMSO was adjusted to 1% in all samples. The enzyme reaction was stopped by addition of 10% trichloroacetic acid (final concentration). Samples were centrifuged in a microtiter plate at 4000 rpm for 10 min. Supernatants were applied to reverse phase HPLC on a Waters Symmetry C18 column, equipped with a Waters Sentry Guard column. Isocratic HPLC runs were performed at RT at a flow rate of 1 ml/min in acetonitrile:water 48:52 as running solvent. Radioactivity was monitored in the eluate by a Scintillation Analyzer. Total radioactivity for estrone and estradiol were determined in each sample and percent conversion of estradiol to estrone was calculated according to the following formula:
(§1) [formula] Percent inhibition was calculated flowingly: % inhibition=100−% conversion

[3] = molecular target: T2, recombinant human 17β-HSD1 (Homo sapiens, UniProt P14061); assay: Inhibition of recombinant human 17β-HSD1; conditions: inhibitor 100 nM; 30 nM estrone, 1 mM NADPH, 30 min RT
T2 construct: made in house; host or cells: Sd9 (Sf9) insect cells, baculovirus (Bac to Bac Expression System)
T2 sequence (P14061 1-328): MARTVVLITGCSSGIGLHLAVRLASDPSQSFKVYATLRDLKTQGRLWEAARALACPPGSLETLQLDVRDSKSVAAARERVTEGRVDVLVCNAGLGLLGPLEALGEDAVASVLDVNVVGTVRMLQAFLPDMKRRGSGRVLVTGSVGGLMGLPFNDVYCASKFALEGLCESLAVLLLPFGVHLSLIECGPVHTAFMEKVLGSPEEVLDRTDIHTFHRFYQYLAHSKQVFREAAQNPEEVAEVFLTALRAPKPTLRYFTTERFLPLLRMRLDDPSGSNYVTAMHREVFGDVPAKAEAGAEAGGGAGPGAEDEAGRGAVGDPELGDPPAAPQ
Experimental: 17β-HSD1 production and isolation: Recombinant baculovirus was generated by the “Bac to Bac Expression System” (Invitrogen). Recombinant bacmid was transfected to Sd9 insect cells using “Cellfectin Reagent” (Invitrogen). 60 h later cells were harvested; the microsomal fraction was isolated as described by Puranen, T. J., Poutanen, M. H., Peltoketo, H. E., Vihko, P. T. and Vihko, R. K. (1994) Site-directed mutagenesis of the putative active site of human 17 β-hydroxysteroid dehydrogenase type 1. Biochem. J. 304: 289-293. Aliquots were stored frozen until determination of enzymatic activity.
Assay—Inhibition of recombinant human 17β-HSD1: Recombinant protein (1 μg/ml) was incubated in 20 mM KH2PO4 pH 7.4 with 30 nM estrone (including 800 000 cpm/ml of ^3H-estrone) and 1 mM NADPH for 30 min at RT, in the presence of the potential inhibitor at concentrations 1 μM or 0.1 μM. Inhibitor stock solutions were prepared in DMSO. Final concentration of DMSO was adjusted to 1% in all samples. The enzyme reaction was stopped by addition of 10% trichloroacetic acid (final concentration). Samples were centrifuged in a microtiter plate at 4000 rpm for 10 min. Supernatants were applied to reverse phase HPLC on a Waters Symmetry C18 column, equipped with a Waters Sentry Guard column. Isocratic HPLC runs were performed at RT at a flow rate of 1 ml/min in acetonitrile:water 48:52 as running solvent. Radioactivity was monitored in the eluate by a Scintillation Analyzer. Total radioactivity for estrone and estradiol were determined in each sample and percent conversion of estrone to estradiol was calculated according to the following formula:
as §1

Row | Structure (SMILES) | Rabbit placenta inhibition % @100 nM [1] | inhibition at 1 µM [2] | inhibition at 0.1 µM [3] | HSD2 inhibition % @1 μM [2]
1 | C[C@]12CCC3c4ccc(Cl)cc4CCC3C1[C@H](CCC(=O)Nc1ccc(F)cn1)C/C2=N\O (stereo partly drawn) [Compound 58, 3-((13S,15R,E)-3-chloro-17-(hydroxyimino)-13-methyl-7,8,9,11,12,13,14,15,16,17-decahydro-6H-cyclopenta[a]phenanthren-15-yl)-N-(5-fluoropyridin-2-yl)propanamide] | 1% | 18% | 60% | –
2 | Cc1cccnc1NC(=O)CC[C@@H]1C/C(=N\O)[C@@]2(C)CCC3c4ccc(Cl)cc4CCC3C12 (stereo partly drawn) [Compound 60, 3-((13S,15R,E)-3-chloro-17-(hydroxyimino)-13-methyl-7,8,9,11,12,13,14,15,16,17-decahydro-6H-cyclopenta[a]phenanthren-15-yl)-N-(3-methylpyridin-2-yl)propanamide] | 4% | 2% | 38% | –
3 | C[C@]12CCC3c4ccc(Cl)cc4CCC3C1[C@H](CCC(=O)Nc1ncccc1F)C/C2=N\O (stereo partly drawn) [Compound 62, 3-((13S,15R,E)-3-chloro-17-(hydroxyimino)-13-methyl-7,8,9,11,12,13,14,15,16,17-decahydro-6H-cyclopenta[a]phenanthren-15-yl)-N-(3-fluoropyridin-2-yl)propanamide] | 3% | – | 45% | −8%
4 | Cc1cnc(NC(=O)CC[C@@H]2C/C(=N\O)[C@@]3(C)CCC4c5ccc(Cl)cc5CCC4C23)o1 (stereo partly drawn) [Compound 64, 3-((13S,15R,E)-3-chloro-17-(hydroxyimino)-13-methyl-7,8,9,11,12,13,14,15,16,17-decahydro-6H-cyclopenta[a]phenanthren-15-yl)-N-(5-methyloxazol-2-yl)propanamide] | 5% | 0% | 26% | –
5 | COc1ccc(NC(=O)CC[C@@H]2C/C(=N\O)[C@@]3(C)CCC4c5ccc(Cl)cc5CCC4C23)nc1 (stereo partly drawn) [Compound 66, 3-((13S,15R,E)-3-chloro-17-(hydroxyimino)-13-methyl-7,8,9,11,12,13,14,15,16,17-decahydro-6H-cyclopenta[a]phenanthren-15-yl)-N-(5-methoxypyridin-2-yl)propanamide] | 14% | 23% | 72% | –
6 | C[C@]12CCC3c4ccc(Cl)cc4CCC3C1[C@H](CCC(=O)Nc1ccccn1)C/C2=N\O (stereo partly drawn) [Compound 68, 3-((13S,15R,E)-3-chloro-17-(hydroxyimino)-13-methyl-7,8,9,11,12,13,14,15,16,17-decahydro-6H-cyclopenta[a]phenanthren-15-yl)-N-(pyridin-2-yl)propanamide] | 12% | 3% | 67% | –
7 | Cc1ccnc(NC(=O)CC[C@@H]2C/C(=N\O)[C@@]3(C)CCC4c5ccc(Cl)cc5CCC4C23)c1 (stereo partly drawn) [Compound 70, 3-((13S,15R,E)-3-chloro-17-(hydroxyimino)-13-methyl-7,8,9,11,12,13,14,15,16,17-decahydro-6H-cyclopenta[a]phenanthren-15-yl)-N-(4-methylpyridin-2-yl)propanamide] | −7% | 4% | 81% | –
8 | C[C@]12CCC3c4ccc(Cl)cc4CCC3C1[C@H](CCC(=O)Nc1ccc(C#N)cn1)C/C2=N\O (stereo partly drawn) [Compound 72, 3-((13S,15R,E)-3-chloro-17-(hydroxyimino)-13-methyl-7,8,9,11,12,13,14,15,16,17-decahydro-6H-cyclopenta[a]phenanthren-15-yl)-N-(5-cyanopyridin-2-yl)propanamide] | 26% | 7% | 52% | –
9 | C[C@]12CCC3c4ccc(Cl)cc4CCC3C1[C@H](CCC(=O)Nc1cnccn1)C/C2=N\O (stereo partly drawn) [Compound 74, 3-((13S,15R,E)-3-chloro-17-(hydroxyimino)-13-methyl-7,8,9,11,12,13,14,15,16,17-decahydro-6H-cyclopenta[a]phenanthren-15-yl)-N-(pyrazin-2-yl)propanamide] | 13% | 2% | 27% | –
